# Results as given in PMC3131501 (Journal of molecular biology, 2011).
# What was measured:
# [1] = target: wild type (wt) BA2930 (Bacillus anthracis, UniProt A0A3P1UCA6); type: binding
# [2] = test system: BA2930; type: biochemical, Bacillus anthracis str. Ames; details: pH 7.5
# wild type (wt) BA2930, sequence (A0A3P1UCA6 1-265): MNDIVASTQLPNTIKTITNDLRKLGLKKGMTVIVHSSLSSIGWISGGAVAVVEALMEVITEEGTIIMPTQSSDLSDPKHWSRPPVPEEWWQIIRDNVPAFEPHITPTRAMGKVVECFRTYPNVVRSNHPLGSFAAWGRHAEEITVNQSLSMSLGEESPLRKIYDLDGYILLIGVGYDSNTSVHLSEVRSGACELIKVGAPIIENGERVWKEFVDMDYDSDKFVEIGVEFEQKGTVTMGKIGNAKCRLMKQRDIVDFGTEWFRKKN
SMILES,N (stoichiometry) [1],ΔH [1],−TΔS [1],Kd ([1]; pH 7.5),chemical modification by the enzyme (TLC) [2]
"CC(=O)SCCNC(=O)CCNC(=O)[C@H](O)C(C)(C)COP(=O)(O)OP(=O)(O)OC[C@H]1O[C@@H](n2cnc3c(N)ncnc32)[C@H](O)[C@@H]1OP(=O)(O)O [AcCoA, Acetyl Coenzyme A]",1.140±0.013,-90.83 ± 1.92 kJ/mol,-65.31 kJ/mol,33.4 ± 2.53 µM,–
NCC[C@H](O)C(=O)N[C@@H]1C[C@H](N)[C@@H](O[C@H]2O[C@H](CN)[C@@H](O)[C@H](O)[C@H]2O)[C@H](O)[C@H]1O[C@H]1O[C@H](CO)[C@@H](O)[C@H](N)[C@H]1O [Amikacin],–,–,–,–,modified by the enzyme
"CC(C)(COP(=O)(O)OP(=O)(O)OC[C@H]1O[C@@H](n2cnc3c(N)ncnc32)[C@H](O)[C@@H]1OP(=O)(O)O)[C@@H](O)C(=O)NCCC(=O)NCCS [CoA, Coenzyme A]",1.000±0.031,-52.17 ± 2.22 kJ/mol,-22.4 kJ/mol,–,–
NC[C@H]1O[C@H](O[C@H]2[C@H](O)[C@@H](O[C@H]3O[C@H](CO)[C@@H](O)[C@H](N)[C@H]3O)[C@H](N)C[C@@H]2N)[C@H](O)[C@@H](O)[C@@H]1O [kanamycin],–,–,–,–,modified by the enzyme
NC[C@H]1O[C@H](O[C@H]2[C@H](O)[C@@H](O[C@H]3O[C@H](CO)[C@@H](O)[C@H](N)[C@H]3O)[C@H](N)C[C@@H]2N)[C@H](N)C[C@@H]1O [tobramycin],–,–,–,–,modified by the enzyme
